In this experiment the target is Estrogen receptor (Homo sapiens, UniProt Q92731+P03372). The experiment can be described thus: Displacement of [3H]estradiol from estrogen receptor-ligand binding domain. It is filed as protein assay. A general note: In a radioligand displacement assay an active substance lowers the binding of a labelled ligand.

Our source for the EC50 values is ChEMBL document CHEMBL1131842, “Synthesis and estrogen receptor binding affinity of a porphyrin-estradiol conjugate for targeted photodynamic therapy of cancer” (Bioorg Med Chem Lett, 1999).

Each structure is given as a SMILES string.

Usually EC50 stands for the concentration that produces a half-maximal response. Low readings indicate a more potent agent, high ones a less potent agent. In turn, `C[C@]12CC(CCOC(=O)CCCNC(=O)c3ccc(-c4c5ccc([nH]5)c(-c5ccccc5)c5nc(c(-c6ccccc6)c6nc(c(-c7ccccc7)c7ccc4[nH]7)C=C6)C=C5)cc3)[C@@H]3c4ccc(O)cc4CC[C@H]3[C@@H]1CCC2O` (stereo partly specified) came in with an EC50 of 274 nM.
